Assay results: ChEMBL document CHEMBL5518215, “Unlocking Antibacterial Potential: Key-Site-Based Regulation of Antibacterial Spectrum of Peptides” (J Med Chem, 2024)
Activity calls are given as the source filed them. No cut-off for these calls is given here.

How the values were obtained:
[1] = Antimicrobial activity against Salmonella pullorum C7913 assessed as absence bacterial growth measured after 18 to 24 hrs incubation by NCCLS method; type: functional, Salmonella enterica subsp. enterica serovar Pullorum; details: Salmonella enterica, time 18-24 hrs
Enterococcus faecalis [2] = test: Antimicrobial activity against Enterococcus faecalis 29212 assessed as bacterial killing measured after 16 hrs incubation; type: functional
Staphylococcus aureus [3] = test: Inhibition of respiratory chain dehydrogenase activity in mid-log phase Staphylococcus aureus 29213 measured after 4 hrs by Red-tetraazoline based spectrophotometry assay
[4] = Cytotoxicity against mouse RAW264.7 cells assessed as cell survival rate at 32 to 64 uM measured after 8 hrs by MTT assay relative to control; type: toxicity, cell-based; details: dose 32-64 µM, read-out: Activity
Bacillus cereus [5] = test: Antimicrobial activity against Bacillus cereus 1.932 assessed as absence bacterial growth measured after 18 to 24 hrs incubation by NCCLS method; type: functional; details: time 18-24 hrs
Cell membrane [6] = test: Induction of cytoplasmic membrane disruption in Escherichia coli 25922 assessed as increase in fluorescence intensity measured upto 30 mins by DiSC3-5 probe based assay; type: cell membranes; details: dose 2-64 µM
Acinetobacter baumannii = test: Antimicrobial activity against Acinetobacter baumannii 1.6769 assessed as bacterial killing measured after 16 hrs incubation; type: functional
Escherichia coli [7] = test: Antibacterial activity against Escherichia coli 25922 assessed as absence bacterial growth measured after 18 to 24 hrs incubation at pH 8 by NCCLS method; type: functional; details: time 18-24 hrs
Escherichia coli [8] = test: Antimicrobial activity against Escherichia coli 25922 assessed as absence bacterial growth measured after 18 to 24 hrs incubation in presence of 25% serum by NCCLS method; type: functional; details: time 18-24 hrs
[9] = Hemolytic activity in human RBC at effective concentration at 128 uM measured after 1 hr by microplate reader relative to control; type: toxicity, cell-based, Erythrocyte; details: human red blood cells (erythrocytes), read-out: Activity
Escherichia coli [10] = test: Outer membrane permeabilization/cell wall in Escherichia coli 25922 assessed as fluorescence intensity of NPN measured at 2 to 128 uM after 1 hr by spectrophotometry; type: functional, organism-based; details: dose 2-128 µM
Staphylococcus aureus [11] = test: Antibacterial activity against Staphylococcus aureus 29213 assessed as bactericidal rate by measuring reduction in bacterial count at 1 times MBC concentration measured at 15 secs by time-kill kinetic assay; type: functional; details: time 15 sec; 15 s
Salmonella typhimurium [12] = test: Antimicrobial activity against Salmonella typhimurium 14028 assessed as absence bacterial growth measured after 18 to 24 hrs incubation by NCCLS method; type: functional, Salmonella enterica subsp. enterica serovar Typhimurium; details: Salmonella enterica, time 18-24 hrs
Cell membrane [13] = test: Induction of cytoplasmic membrane disruption in Staphylococcus aureus 29213 assessed as increase in fluorescence intensity at 2 to 64 uM by DiSC3-5 probe based assay; type: cell membranes; details: dose 2-64 µM, time <= 30.0 min, TDE = time-dependent effect
Escherichia coli [14] = test: Inhibition of respiratory chain dehydrogenase activity in mid-log phase Escherichia coli 25922 measured after 4 hrs by Red-tetraazoline based spectrophotometry assay
Cell membrane [15] = test: Induction of membrane disruption in Escherichia coli 25922 assessed as increase in extracellular ATP level at 4 to 32 uM measured after 1 hr; type: cell membranes; details: dose 4-32 µM
Escherichia coli [16] = test: Antimicrobial activity against Escherichia coli K88 assessed as bacterial killing measured after 16 hrs incubation; type: functional
Escherichia coli [17] = test: Antimicrobial activity against Escherichia coli 25922 assessed as absence bacterial growth measured after 18 to 24 hrs incubation in presence of MgCl2 by NCCLS method; type: functional; details: time 18-24 hrs
Staphylococcus aureus [18] = test: Antimicrobial activity against Staphylococcus aureus 29213 assessed as absence bacterial growth measured after 18 to 24 hrs incubation by NCCLS m; type: functional; details: time 18-24 hrs
Staphylococcus aureus [19] = test: Induction of morphological changes in Staphylococcus aureus 29213 assessed as cavity between cell wall and cytoplasmic membrane by using transmission electron microscopy; type: functional, organism-based
Staphylococcus aureus [20] = test: Antimicrobial activity against Methicillin-resistant Staphylococcus aureus 43300 assessed as absence bacterial growth measured after 18 to 24 hrs incubation by NCCLS method; type: functional; details: time 18-24 hrs
Escherichia coli [21] = test: Antimicrobial activity against Escherichia coli 25922 assessed as absence bacterial growth measured after 18 to 24 hrs incubation in presence of ZnCl2 by NCCLS method; type: functional; details: time 18-24 hrs
Staphylococcus aureus [22] = test: Antimicrobial activity against Staphylococcus aureus 29213 assessed as absence bacterial growth measured after 18 to 24 hrs incubation by NCCLS method; type: functional; details: time 18-24 hrs
[23] = Cytotoxicity against porcine IPEC-J2 cells assessed as cell survival rate at 64 uM measured after 8 hrs by MTT assay relative to control; type: toxicity, cell-based, Sus scrofa; details: pig, read-out: Activity
DNA = test: Binding affinity to DNA in Escherichia coli 25922 incubated for 1 hr by electrophoresis; type: nucleic-acid assay
Escherichia coli [24] = test: Induction of morphological changes in Escherichia coli 25922 assessed as changes in cell surface by measuring signs of disruption by using scanning electron microscopy; type: functional, organism-based
Bacillus cereus [25] = test: Antimicrobial activity against Bacillus cereus 1.932 assessed as bacterial killing measured after 16 hrs incubation; type: functional
Enterococcus faecalis [26] = test: Antimicrobial activity against Enterococcus faecalis 29212 assessed as absence bacterial growth measured after 18 to 24 hrs incubation by NCCLS method; type: functional; details: time 18-24 hrs
Staphylococcus aureus [27] = test: Antimicrobial activity against Staphylococcus aureus 25923 assessed as bacterial killing measured after 16 hrs incubation; type: functional
Cell membrane [28] = test: Induction of membrane disruption in Staphylococcus aureus 29213 assessed as increase in extracellular ATP level at 4 to 32 uM measured after 1 hr; type: cell membranes; details: dose 4-32 µM
[29] = Cytotoxicity against human HEK-293T cells assessed as cell survival rate at 64 uM measured after 8 hrs by MTT assay relative to control; type: toxicity, cell-based; details: read-out: Activity
Salmonella typhimurium [30] = test: Antimicrobial activity against Salmonella typhimurium 14028 assessed as bacterial killing measured after 16 hrs incubation; type: functional, Salmonella enterica subsp. enterica serovar Typhimurium; details: Salmonella enterica
Escherichia coli [31] = test: Induction of ROS production in mid-log phase Escherichia coli 25922 assessed as fluorescence intensity at 1 to 64 uM by DCFH-DA assay; type: functional, organism-based; details: dose 1-64 µM
[32] = Cytotoxicity against porcine IPEC-J2 cells assessed as cell survival rate measured after 8 hrs by MTT assay; type: toxicity, cell-based, Sus scrofa; details: pig
Escherichia coli [33] = test: Antimicrobial activity against Escherichia coli 25922 assessed as absence bacterial growth measured after 18 to 24 hrs incubation in presence of FeCl3 by NCCLS method; type: functional; details: time 18-24 hrs
Escherichia coli [34] = test: Induction of morphological changes in Escherichia coli 25922 assessed as membrane damage and cytoplasmic leakage by using transmission electron microscopy; type: functional, organism-based
Salmonella typhimurium [35] = test: Antimicrobial activity against Salmonella typhimurium C7731 assessed as bacterial killing measured after 16 hrs incubation; type: functional, Salmonella enterica subsp. enterica serovar Typhimurium; details: Salmonella enterica
Staphylococcus aureus [36] = test: Induction of morphological changes in Staphylococcus aureus 29213 assessed as loose distribution of cellular contents by using transmission electron microscopy; type: functional, organism-based
[37] = Antimicrobial activity against Salmonella pullorum C7913 assessed as bacterial killing measured after 16 hrs incubation; type: functional, Salmonella enterica subsp. enterica serovar Pullorum; details: Salmonella enterica
Cell membrane [38] = test: Induction of cytoplasmic membrane disruption in Staphylococcus aureus 29213 assessed as increase in fluorescence intensity measured upto 30 mins by DiSC3-5 probe based assay; type: cell membranes; details: dose 2-64 µM
Escherichia coli [39] = test: Antimicrobial activity against Escherichia coli 25922 assessed as bacterial killing measured after 16 hrs incubation; type: functional
Listeria monocytogenes = test: Antimicrobial activity against Listeria monocytogenes 1.10753 assessed as bacterial killing measured after 16 hrs incubation; type: functional
Staphylococcus aureus [40] = test: Antimicrobial activity against Staphylococcus aureus 29213 assessed as bacterial killing measured after 16 hrs incubation; type: functional

With H-GKLWLKAGKLWLKGGKLWLKG-NH2 the MIC [1] was 1 µM, the MBC (Enterococcus faecalis [2]) was 8 µM and the inhibition (Staphylococcus aureus [3]) was “Active”. For the same substance, the viability at 8 h, up to 64 µM [4] was 60%, the MIC (Bacillus cereus [5]) was 2 µM and the Activity (Cell membrane [6]) was “Dose-Dependent Effect”. It also gave an MBC (Acinetobacter baumannii) of 2 µM, an MIC (Escherichia coli [7]) of 2 µM and an MIC (Escherichia coli [8]) of 32 µM. For the same substance, the hemolysis at 1 h, 128 µM [9] was under 10%, the permeability (Escherichia coli [10]) was “Permeable” and the “inhibition (INH)” value (Staphylococcus aureus [11]) was 99.99%. For the same substance, the MIC (Salmonella typhimurium [12]) was 2 µM, the Activity (Cell membrane [13]) was “Tde” and the inhibition (Escherichia coli [14]) was “Active”. For the same substance, the Activity (Cell membrane [15]) was “Active”, the MBC (Escherichia coli [16]) was 0.5 µM and the MIC (Escherichia coli [17]) was 8 µM. The MIC (Staphylococcus aureus [18]) was 4 µM, the Activity (Staphylococcus aureus [19]) was “Active” and the MIC (Staphylococcus aureus [20]) was 4 µM. The MIC (Escherichia coli [21]) was 2 µM, the MIC (Staphylococcus aureus [22]) was 4 µM and the viability at 8 h, 64 µM [23] was over 80%. For the same substance, the Activity (DNA) was “Active”, the Activity (Escherichia coli [24]) was “Active” and the MBC (Bacillus cereus [25]) was 2 µM. For the same substance, the MIC (Enterococcus faecalis [26]) was 4 µM, the MBC (Staphylococcus aureus [27]) was 4 µM and the Activity (Cell membrane [28]) was “Active”. For the same substance, the viability at 8 h, 64 µM [29] was over 80%, the MBC (Salmonella typhimurium [30]) was 16 µM and the Activity (Escherichia coli [31]) was “Active”. The IC50 at 8 h [32] was over 64 µM, the MIC (Escherichia coli [33]) was 2 µM and the Activity (Escherichia coli [34]) was “Active”. For the same substance, the MBC (Salmonella typhimurium [35]) was 32 µM, the Activity (Staphylococcus aureus [36]) was “Active” and the MBC [37] was 1 µM. For the same substance, the Activity (Cell membrane [38]) was “Dose-Dependent Effect”, the MBC (Escherichia coli [39]) was 2 µM and the MBC (Listeria monocytogenes) was over 32 µM. It also gave an MBC (Staphylococcus aureus [40]) of 8 µM.
